Reference: paper PMC6687188, “Novel lactate dehydrogenase inhibitors with in vivo efficacy against Cryptosporidium parvum” (PLoS Pathogens, 2019)

Molecular target: recombinant CpLDH protein (Cryptosporidium parvum, UniProt Q9GT92, F198L/K295E/R251K)

Structure (SMILES)	MEAN CpLDH INHIBITION (%)
Cc1nnc(-n2c(O)cc(=O)n(-c3ccccc3)c2=S)nc1/C=C/c1ccc(N(C)C)cc1 [NSC698031]	-6.31%
Cc1ccccc1NC(=O)/C=N/O [NSC625639]	-116.71%
NC(=O)C1=C[C@H]2[C@@H]3C=C[C@@]2(O)C(=O)O[C@@H]3O1 [NSC357683]	-9.72%
CN1CCN(CCNc2ccc(CO)c3sc4ccccc4c(=O)c23)CC1 [NSC166381]	-6.81%
O=S(=O)(O)SC/C=C\CSS(=O)(=O)O.[Na+] [NSC624161]	-27.85%
Cc1ccc(S(=O)(=O)c2ccccc2[N+](=O)[O-])cc1 [NSC627708]	-13.84%
Cc1ccc(C)c2c(N=Nc3ccccc3[N+](=O)[O-])c(O)[nH]c12 [NSC118732]	-7.91%
O=C(Nc1ccc(Sc2ccc(N=Nc3c(O)c(S(=O)(=O)O)cc4cc(S(=O)(=O)O)ccc34)cc2)cc1)c1ccc(N=Nc2c(O)ccc3c(S(=O)(=O)O)cc(S(=O)(=O)O)cc23)cc1 [NSC76027]	-85.04%
CC1=C/C(=N\OCC(=O)O)CC(c2ccc(C(C)C)cc2)C1 (stereo not drawn) [NSC680506]	-8.88%
C=CCOC1OC(CO[Si](C)(C)C(C)(C)C)C(OCc2ccccc2)C(OCc2ccccc2)C1OCc1ccccc1 (stereo not drawn) [NSC624953]	-142.25%
CC1CCC2(OC1)OC1CC3C4CC=C5CC(OC6OC(CO)C(OC7OC(C)C(OC8OC(C)C(O)C(O)C8O)C(O)C7O)C(O)C6OC6OC(C)C(O)C(O)C6O)CCC5(C)C4CCC3(C)C1C2C (stereo not drawn) [NSC306864]	-7.27%
CCOC(=O)CNC(=O)NC12CC3CC(CC(C3)C1)C2 [NSC208914]	-37.53%
C[CH2][Ge]1([CH2]C)[CH2]CC2(CCN(CCCN(C)C)C2)C[CH2]1 [NSC192965]	-81.94%
O=[N+]([O-])c1ccc2oc(=Nc3ccccc3)c(Nc3ccccc3)nc2c1 [NSC671424]	-1.46%
Cc1ccc(S(=O)(=O)N2CCSCCSCCSCCSCC2)cc1 [NSC650792]	-46.61%
CC(=O)OC[C@H]1O[C@@H](NC(=O)N(CCCl)N=O)[C@H](OC(C)=O)[C@@H](OC(C)=O)[C@@H]1OC(C)=O [NSC245432]	-45.30%
O=C1c2ccccc2C(=O)c2nc(-c3ccccc3)c(-c3ccccc3)nc21 [NSC629713]	-5.77%
Cl.O=C1C=CC(=O)c2c(O)c(N3CCN(CCOCCO)CC3)c(Br)c(O)c21 [NSC659999]	-30.12%
CSCC(CO)NC(=O)/C=C/c1c(C)[nH]c(=O)[nH]c1=O (stereo not drawn) [NSC233872]	-35.08%
C=C1CC(COc2cc(=O)oc3ccccc23)(c2ccccc2)OC1=O (stereo not drawn) [NSC668270]	-4.80%
Oc1[nH]c2ccccc2c1N=Nc1nc(-c2ccc(Br)cc2)cs1 [NSC657456]	-18.36%
Cc1ccc(NC(=O)c2cccc([N+](=O)[O-])c2O)c(C)c1 [NSC79456]	-17.92%
COc1ccc(OC)c(-c2cc(=O)c3c(OC)c(OC)c(OC)c(OC)c3o2)c1 [NSC71300]	-64.35%
O=C1C=C2C=CC3CC2(O1)C1CCCCN31 (stereo not drawn) [NSC107415]	-39.15%
COc1cc(/C=C2\S/C(=N/Nc3nc(-c4ccc(Br)cc4)cs3)NC2=O)cc(OC)c1OC [NSC657457]	-150.87%
CCN(CC)CCCC(C)NC(=O)c1ccc2c(c1)C(=O)c1ccccc1C2=O.Cl (stereo not drawn) [NSC331757]	-61.61%

Structure (SMILES)	MEAN CpLDH INHIBITION (%)
COc1cc(O)c2c(c1)C(=O)c1cc3c(c(O)c1C2=O)[C@@H](O[C@@H]1O[C@@H](C)[C@H](O)[C@@H](O)[C@H]1OC)[C@H](OC)[C@](C)(O)C3=O [NSC93419]	-51.14%
Cn1cnc([N+](=O)[O-])c1Sc1nnc(-c2cccnc2)n1C [NSC631160]	-15.11%
CC(C)(C)c1ccc(O)c(CN(Cc2cc(C(C)(C)C)ccc2O)C2CCCCC2)c1 [NSC48151]	-66.17%
COc1cccc2c1C(=O)c1c(O)c3c(c(O)c1C2=O)C[C@@](O)(C(C)=O)C[C@@H]3O[C@@H]1C[C@@H](N(C)C)[C@@H](O)[C@@H](C)O1 [NSC258812]	-2.78%
CN(C)C(=S)/N=c1\ss/c(=N\C(=S)N(C)C)n1-c1ccc2c(c1)OCO2 [NSC622589]	-7.95%
Cc1cc(Cl)ccc1N1C(=O)C(=O)C(c2nc3ccccc3o2)C(=O)C1=O [NSC623051]	-30.82%
C[C@@H]1CC[C@H]2C(C)(C)[C@H]3C[C@@]12CC[C@@]3(C)O [NSC403883]	-51.63%
O=[N+]([O-])c1ccc(-c2cn(-c3ccc(Cl)cc3)cn2)cc1 [NSC610744]	-19.53%
Oc1cc(-n2cccn2)c(O)cc1-n1cccn1 [NSC645987]	-40.48%
CC(C)(C)C1CCC2(CC1)CCN(CCCN1CCOCC1)CC2 [NSC90829]	-2.93%
Cc1ccc([S+](c2ccc(C)cc2)c2ccc(C)cc2)cc1 [NSC157930]	-72.47%
CN(C)CCCCN1CCc2c(n(C)c3ccccc23)C1=O.Cl [NSC658388]	-30.45%
Cc1ccc(NC(=S)C#N)c(C)c1 [NSC369318]	-37.61%
COc1c2c(c(OC)c3c1c(=O)c1ccccc1n3C)OCO2 [NSC34757]	-24.18%
C1COCCN1.S=C(S)N1CCOCC1 [NSC4114]	-42.22%
CC(C)(C)N(Cc1ccc2c(c1)OCO2)C(=O)/C=C\[S+]([O-])c1ccccc1 (stereo not drawn) [NSC705330]	-49.87%
COc1cc2c(c(OC)c1OC)-c1ccc(OC)c(=O)cc1[C@@H](NC(=O)c1ccccc1)CC2 [NSC33410]	-43.24%
O=C(Nc1ccc2c(c1)oc(=O)c1ccccc12)C(Cl)Cl [NSC65937]	-25.00%
COc1ccc(/C=C2\CCCc3ccccc3C2=O)cc1 [NSC687667]	-11.60%
CCCc1c(Cl)nc(Cl)nc1Cl [NSC66914]	-32.10%
C[Si](C)(CN)CN.[Cl][Pt][Cl] [NSC603577]	-0.38%
C=C1C(=O)C2=CC1CCC(=O)C1(C)CCC(OC(C)=O)C(C)(C)C1CC2O (stereo not drawn) [NSC302979]	-1.17%
C[C@H](CSC(=O)c1ccccc1)C(=O)N1c2ccccc2C[C@H]1C(=O)O [NSC604535]	-8.81%
COc1ccc(S(=O)(=O)N/N=C/C(=O)O)cc1 [NSC267213]	-67.55%
O=C1C(=O)c2ccccc2C(O)=C1CCCc1ccc(Oc2ccccc2)cc1 [NSC377]	-0.53%
CSc1ccc(NC(=O)CCl)cc1 [NSC166464]	-7.16%

Structure (SMILES)	MEAN CpLDH INHIBITION (%)
CCOC(=O)C(CC(C)C)NC(=O)C(Cc1ccc(N(CCCl)CCCl)cc1)NC(C)=O (stereo not drawn) [NSC167780]	-51.52%
C=C1C(=O)OC2CC1C(OC(C)=O)C/C(C)=C/CC/C(C)=C\CCC2(C)O (stereo not drawn) [NSC36437]	-19.06%
COc1cc2c(c(OC)c1OC)-c1c(cc3c(c1OC)OCO3)CC(C)C(C)(O)C2OC(=O)c1ccccc1 (stereo not drawn) [NSC330516]	-37.93%
O=C1/C(=C\c2ccc(Cl)c(Cl)c2)CN(C(=O)CCN2CCOCC2)C/C1=C\c1ccc(Cl)c(Cl)c1 [NSC638646]	-17.60%
Cn1c(=O)[nH]c2nncnc2c1=O [NSC99733]	-38.11%
NC(N)=NCCCS(=O)(=O)Nc1ccc(Nc2c3ccccc3nc3cc([N+](=O)[O-])ccc23)cc1 [NSC177365]	-212.36%
CCCCCCCCCCCCC(O)C(=O)O (stereo not drawn) [NSC18938]	-83.85%
COc1cc(O)c(Cc2ccccc2O)c(O)c1C(=O)CCc1ccccc1 [NSC241906]	-0.38%
O=[N+]([O-])[O-].O=[N+]([O-])[O-].O=[N+]([O-])[O-].[Ga+3] [NSC15200]	-34.76%
Nc1nc(=S)c2ncn(C3CC(O)C(CO)O3)c2[nH]1 (stereo not drawn) [NSC71851]	-30.23%
Cc1cc2nc(C=C(C(F)(F)F)C(F)(F)F)oc2cc1C [NSC168415]	-49.77%
CCS(=O)(=O)O.CN(C)C(=O)c1cccc(COc2ccc(N3C(N)=NC(N)=NC3(C)C)cc2Cl)c1 [NSC139105]	-28.54%
O=C1C=Cc2ncccc2C1=O [NSC400944]	-2.52%
CC1=CC23C(COC(=O)C24CO4)C(C(=O)O)=CC3C1C.NCc1ccccc1 (stereo not drawn) [NSC136037]	-0.26%
C=C1C(=O)O[C@H]2/C=C(/CO)[C@H](OC(C)=O)C[C@H](O)/C(C)=C\[C@H](OC(=O)[C@@H](C)CC)[C@H]12 [NSC292663]	-63.04%
Cc1ccc(C2NC(=O)c3ccccc3N2)s1 (stereo not drawn) [NSC175634]	-31.59%
C(=C/c1nc2ccccc2o1)/c1ccc2c(c1)OCO2 [NSC176655]	-23.23%
C=C1C(=O)C23CC[C@@H]4C(C)(C(=O)OC)CCCC4(C)[C@@H]2CCC1(O)C3 (stereo partly drawn) [NSC620358]	-24.86%
CC1(C)N=C(N)N=C(N)N1c1ccc(CCCCc2ccc(Cl)cc2Cl)cc1 [NSC104129]	-53.74%
COc1ccc(-c2cc(-c3ccccc3)nc3c2CC(=O)Nc2ccccc2-3)cc1OC [NSC682769]	-0.10%
CO[C@H]1[C@@H](O)[C@@H](C)O[C@H](O[C@H]2[C@H](Oc3cccc4c(O)c5c(=O)oc6ccc(C)c7c(=O)oc(c34)c5c67)O[C@H](C)[C@H](O)[C@@H]2O)[C@@H]1O [NSC5159]	-38.07%
CC(=O)/C(C)=N/NC(=O)c1ccccc1O [NSC635441]	-52.88%
CCCCCn1cc2c3c(cccc31)C1C=C(C)CN(C)[C@@H]1C2.Cc1ccc(C(=O)OC(C(=O)O)C(OC(=O)c2ccc(C)cc2)C(=O)O)cc1 (stereo not drawn) [NSC600681]	-36.35%
N.N.[Cl][Pt][Cl] [NSC119875]	-45.38%
CC1(C)N=C(N)N=C(N)N1c1ccc(OCCCOc2ccccc2)c(Cl)c1.CCS(=O)(=O)O [NSC133071]	-57.79%
CCCCOc1ccc(NC(N)=Nc2ccc(Cl)cc2)cc1 [NSC78365]	-60.70%
